These results are taken from patent US20150133456A1, “FLUOROERGOLINE DERIVATIVES AND USES THEREOF” (MAP PHARMACEUTICALS, INC., priority 2012, published 2015).

Data set [1] has as its target T1, human 5-HT2B receptor (Homo sapiens, UniProt P41595).
T1 construct: host or cells: CHO-K1 coexpressing mitochondrial apoaequorin
In words: Aequorin assay, antagonist activity at 5-HT2B. The settings on record: reference agonist at its EC80; read-out: IC50, 5-HT2B antagonism. The class given is cell-based. How it is done: Percentage inhibition values were determined for 2-CF3 dihydroergotamine on the 5-HT2B receptor.

For data set [2], the target named is T2, D2 receptor (Homo sapiens, UniProt P14416).
T2 construct: expressed in transfected cells
T2 sequence (P14416 whole entry): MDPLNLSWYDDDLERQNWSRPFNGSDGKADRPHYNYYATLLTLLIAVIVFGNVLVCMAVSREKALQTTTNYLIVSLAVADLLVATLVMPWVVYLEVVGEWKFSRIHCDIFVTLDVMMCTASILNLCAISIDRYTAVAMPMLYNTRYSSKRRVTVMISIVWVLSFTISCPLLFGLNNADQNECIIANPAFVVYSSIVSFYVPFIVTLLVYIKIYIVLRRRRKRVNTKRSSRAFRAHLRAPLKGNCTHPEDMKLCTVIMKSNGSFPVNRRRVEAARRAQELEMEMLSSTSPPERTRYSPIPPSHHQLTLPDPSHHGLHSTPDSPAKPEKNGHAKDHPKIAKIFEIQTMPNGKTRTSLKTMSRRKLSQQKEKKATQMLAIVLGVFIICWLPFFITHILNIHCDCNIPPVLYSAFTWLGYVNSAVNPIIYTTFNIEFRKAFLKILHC
In words: Agonist activity at the D2 receptor. The class given is cell-based. The settings on record: read-out: EC50, D2 receptor agonism. On the procedure: The assay was performed analogously to the assay described in Example 4.

Data set [3] is described as follows: Metabolism in human liver microsomes. The note with it: 1 μM, 0.2 mg protein/mL, 0 to 60 minutes. On the procedure: Metabolism of dihydroergotamine (DHE) and 2-CF3 DHE was evaluated in human liver microsomes. DHE mesylate and 2-CF3 DHE mesylate (1 μM each) were incubated separately with human liver microsomes (0.2 mg protein/mL) in triplicate at 37° C. in 0.2 mL (final volume) incubation buffer (50 mM potassium phosphate buffer, pH 7.4, 3 mM MgCl2 and 1 mM EDTA, pH7.4) with or without cofactor, NADPH-generating system. The NADPH-generating system consisted of 1 mM NADP, pH 7.4, 5 mM glucose-6-phosphate, pH 7.4 and 1 unit/mL glucose-6-phosphate dehydrogenase. DHE was added to the incubation mixtures in water. 2-CF3-DHE was added to incubation mixtures in 50:50 (v:v) acetonitrile:water. A low level of acetonitrile in the incubation was maintained to avoid any solvent effects on enzyme activity (typically at 0.5% or lower). Reactions were initiated by the addition of the NADPH-generating system and were terminated at 0, 15, 30 and 60 minutes after initiation by the addition of […], of stop reagent (acetonitrile) containing two internal standards (4′-hydroxydiclofenac-d4 and 1′-hydroxymidazolam-d4, 200 and 50 ng/mL in the final stopped incubation, respectively). The samples were then centrifuged and the supernatant fractions were analyzed by LC/MS/MS to quantify the formation of 8′-OH-DHE (metabolite) in the DHE samples and DHE and 8′-OH-DHE in the 2-CF3-DHE samples.
On the technique in general: Liver microsomes are a subcellular fraction often used to study metabolism.

In data set [4] the target is T1, human 5-HT2B receptor. In words: Aequorin assay, agonist activity at 5-HT2B. The class given is cell-based. The settings on record: reference agonist; read-out: EC50, 5-HT2B agonism. On the procedure: Percentage activation values were determined for 2-CF3 dihydroergotamine at the 5-HT2B receptor.

T1 sequence (P41595 whole entry): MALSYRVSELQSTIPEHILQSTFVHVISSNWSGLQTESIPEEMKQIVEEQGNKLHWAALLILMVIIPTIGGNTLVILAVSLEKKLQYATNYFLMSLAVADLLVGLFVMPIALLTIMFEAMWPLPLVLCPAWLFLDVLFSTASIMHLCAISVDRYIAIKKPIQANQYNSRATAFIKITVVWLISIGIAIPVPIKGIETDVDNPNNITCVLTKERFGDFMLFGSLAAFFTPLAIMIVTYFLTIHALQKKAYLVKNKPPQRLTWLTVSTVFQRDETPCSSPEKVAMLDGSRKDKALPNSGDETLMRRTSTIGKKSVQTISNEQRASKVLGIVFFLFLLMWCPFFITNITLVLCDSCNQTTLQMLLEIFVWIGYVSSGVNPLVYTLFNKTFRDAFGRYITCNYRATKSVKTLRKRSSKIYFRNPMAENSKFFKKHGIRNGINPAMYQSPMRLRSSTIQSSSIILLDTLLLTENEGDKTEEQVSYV

In general, IC50 refers to the midpoint of a concentration-inhibition curve. Turning to `Cc1cc(NC(=O)Nc2ccc3c(ccn3C)c2)sn1` [SB204741, reference compound], the IC50 in data set [1] is 28.8 nM.

What is called EC50 is the concentration at which the effect is half-maximal. As for `CN1C[C@H](C(=O)N[C@]2(C)O[C@@]3(O)[C@@H]4CCCN4C(=O)[C@H](Cc4ccccc4)N3C2=O)C[C@@H]2c3cccc4[nH]cc(c34)C[C@H]21` [dihydroergotamine, reference compound], the EC50 in data set [2] worked out at 8.35 nM. In addition, in data set [3], the “metabolism by human liver microsomes in the presence of NADPH” value is reported as “extensively metabolized”.

Regarding `CC(N)Cc1c[nH]c2ccc(O)cc12` (stereo not drawn) [α-methyl-5-HT, reference compound], in data set [4], the EC50 amounted to 1.01 nM.
